Data published in paper PMC7226469, “Polyketide-Derived Secondary Metabolites from a Dothideomycetes Fungus, Pseudopalawania siamensis gen. et sp. nov., (Muyocopronales) with Antimicrobial and Cytotoxic Activities” (Biomolecules, 2020).
Values after ≈ are worked out from the molar mass of the structure shown. Counter-ions that a name gives are not always drawn. Like-named read-outs stand apart in the source and are kept apart here.

Assays:
[1] = tested on: Bacillus subtilis; assay: MIC, 96-well serial dilution; format: cell-based; details: for MIC: Bacillus subtilis
Description: (§1) Gentamicin, kanamycin, nystatin, and oxytetracycline were used as positive controls against tested organisms. […] Epothilone B and methanol were used as positive and negative control, respectively.
(§2) The polyketides 1–5 were evaluated for their antimicrobial activity against selected microorganisms (Table 3) and cytotoxicity against two mammalian cell lines, HeLa cells KB3.1 and mouse fibroblast cell line L929 (Table 4). The starting concentration for antimicrobial assay and cytotoxicity assay were 66.7 and 300 µg/mL, respectively and the substances were dissolved in MeOH (1 mg/mL). […] Results were expressed as MIC or minimum inhibitory concentration (μg/mL) and IC50 or half maximal inhibitory concentration (μM) (Table 3 and Table 4).

[2] = tested on: Chromobacterium violaceum; assay: MIC, 96-well serial dilution; format: cell-based; details: strain DSM 30191, starting concentration 66.7 µg/mL, control volume in brackets; also: key: (-): no inhibition
Description: as §1, §2

[3] = tested on: Escherichia coli; assay: MIC, 96-well serial dilution; format: cell-based; details: strain DSM 1116, starting concentration 66.7 µg/mL, control volume in brackets; also: key: (-): no inhibition
Description: as §1, §2

[4] = tested on: Micrococcus luteus; assay: MIC, 96-well serial dilution; format: cell-based; details: for MIC: Micrococcus luteus
Description: as §1, §2

[5] = tested on: Mucor hiemalis; assay: MIC, 96-well serial dilution; format: cell-based; as to Minimum Inhibitory Concentration (MIC): key: (-): no inhibition
Description: as §1, §2

[6] = tested on: Pseudomonas aeruginosa; assay: MIC, 96-well serial dilution; format: cell-based; details: strain PA14; starting concentration 66.7 µg/mL; control volume in brackets; also: key: (-): no inhibition
Description: as §1, §2

[7] = tested on: Staphylococcus aureus; assay: MIC, 96-well serial dilution; format: cell-based; details: for MIC: Staphylococcus aureus
Description: as §1, §2

[8] = tested on: HeLa cells KB3.1; assay: In vitro cytotoxicity, MTT assay; format: cell-based; details: Homo sapiens
Description: as §1, §2

[9] = tested on: Mouse fibroblast L929; assay: In vitro cytotoxicity, MTT assay; format: cell-based
Description: as §1, §2

[10] = tested on: Candida albicans; assay: MIC, 96-well serial dilution; format: cell-based
Description: as §1, §2

[11] = tested on: Mycobacterium smegmatis; assay: MIC, 96-well serial dilution; format: cell-based
Description: as §1, §2

[12] = tested on: various fungal and bacterial strains; assay: Antimicrobial activity against selected microorganisms (summary statements); format: cell-based; details: for Antimicrobial activity (in words): fungi and bacteria of Table 3
Description: as §1, §2

[13] = tested on: several cancer cell lines; parameters: method as in PMID 30258223; details: cell proliferation inhibition and apoptosis induction; cited from earlier work
[14] = parameters: method as in PMID 30258223; details: cited from earlier work
[15] = tested on: M. luteus; parameters: method as in PMID 30258223; details: cited from earlier work
[16] = tested on: Pseudoalteromonas nigrifaciens; parameters: method as in PMID 30258223; details: cited from earlier work
[17] = tested on: E. coli; parameters: method as in PMID 30258223; details: cited from earlier work
[18] = tested on: B. subtilis; parameters: method as in PMID 30258223; details: cited from earlier work
[19] = tested on: MDA-MB-435 human melanoma cells; parameters: method as in PMID 23232928; details: cited from earlier work
[20] = tested on: SW620 human colorectal adenocarcinoma cell lines; parameters: method as in PMID 23232928; details: cited from earlier work
[21] = tested on: CCR5-tropic HIV-1; parameters: method as in PMID 29258357; details: inhibition of infection; cited from earlier work
[22] = tested on: CXCR4-tropic HIV-1; parameters: method as in PMID 29258357; details: inhibition of infection; cited from earlier work
[23] = tested on: HeLa cells KB3.1 and mouse fibroblast cell line L929; assay: Cytotoxicity against two mammalian cell lines (summary statements); details: HeLa KB3.1 and L929
Description: as §1, §2

[24] = tested on: Cryptococcus neoformans; assay: MIC, 96-well serial dilution; format: cell-based; details: strain DSM 15466; starting concentration 66.7 µg/mL; control volume in brackets
Description: as §1, §2

[25] = tested on: Pichia anomala; assay: MIC, 96-well serial dilution; format: cell-based; details: strain DSM 6766; starting concentration 66.7 µg/mL; control volume in brackets
Description: as §1, §2

[26] = tested on: Rhodoturula glutinis; assay: MIC, 96-well serial dilution; format: cell-based; details: strain DSM 10134; starting concentration 66.7 µg/mL; control volume in brackets
Description: as §1, §2

[27] = tested on: Schizosaccharomyces pombe; assay: MIC, 96-well serial dilution; format: cell-based; details: strain DSM 70572; starting concentration 66.7 µg/mL; control volume in brackets
Description: as §1, §2

[28] = DSM10, strain DSM 10, starting concentration 66.7 µg/mL, control volume in brackets, read-out: Minimum Inhibitory Concentration (MIC)
[29] = DSM1790, strain DSM 1790, starting concentration 66.7 µg/mL, control volume in brackets, read-out: Minimum Inhibitory Concentration (MIC)
[30] = strain DSM 6766, starting concentration 66.7 µg/mL, control volume in brackets
[31] = DSM346, strain DSM 346, starting concentration 66.7 µg/mL, control volume in brackets, read-out: Minimum Inhibitory Concentration (MIC)
[32] = MTT assay, HeLa cells KB3.1, starting concentration 66 μg/mL, read-out: IC50
[33] = MTT assay, mouse fibroblast L929, starting concentration 66 μg/mL, read-out: IC50
[34] = strain DSM 10, starting concentration 66.7 µg/mL, control volume in brackets
[35] = strain DSM 1790, starting concentration 66.7 µg/mL, control volume in brackets
[36] = strain DSM 346, starting concentration 66.7 µg/mL, control volume in brackets

Structure (SMILES): COC(=O)C1(C2OC(=O)CC2C)CC(=O)c2c(O)ccc(-c3ccc4c(c3O)C(=O)C3(O)C5(O)CC(C)C(O)C3(O4)C(=O)O5)c2O1 (stereo not drawn) [Compound 1, pseudopalawanone]
- MIC [1, 28]: 66.7 µg/mL (≈ 104 µM)
- Minimum Inhibitory Concentration (MIC) [2]: -
- Minimum Inhibitory Concentration (MIC) [3]: -
- MIC [4, 29]: 66.7 µg/mL (≈ 104 µM)
- Minimum Inhibitory Concentration (MIC) [5, 30]: -
- Minimum Inhibitory Concentration (MIC) [6]: -
- MIC [7, 31]: 66.7 µg/mL (≈ 104 µM)
- IC50 [8, 32]: 29.7 µM
- IC50 [9, 33]: 50 µM

Structure (SMILES): C[C@H]1CC(O)=C2C(=O)c3c(O)ccc(-c4ccc(O)c5c4O[C@]4(C(=O)O)C(=C(O)C[C@H](C)[C@H]4O)C5=O)c3O[C@@]2(C(=O)O)[C@@H]1O [Compound 2, 4,4′-secalonic acid D]
- MIC ([1]; DSM10, read-out: Minimum Inhibitory Concentration (MIC)): 1 µg/mL (≈ 1.64 µM)
- MIC ([10]; Candida albicans, DSM1665, read-out: Minimum Inhibitory Concentration (MIC)): 66.7 µg/mL (≈ 109 µM)
- Inhibition of Candida albicans (in words) ([10]; comparable to nystatin): showed inhibition
- Minimum Inhibitory Concentration (MIC) [2]: -
- Minimum Inhibitory Concentration (MIC) [3]: -
- MIC ([4]; DSM1790, read-out: Minimum Inhibitory Concentration (MIC)): 8.3 µg/mL (≈ 13.6 µM)
- Minimum Inhibitory Concentration (MIC) [5, 30]: -
- Activity against Mycobacterium smegmatis (in words) [11]: showed activity
- MIC ([11]; Mycolicibacterium smegmatis, ATCC700084, read-out: Minimum Inhibitory Concentration (MIC)): 66.7 µg/mL (≈ 109 µM)
- Minimum Inhibitory Concentration (MIC) [6]: -
- MIC ([7]; DSM346, read-out: Minimum Inhibitory Concentration (MIC)): 4.2 µg/mL (≈ 6.88 µM)
- IC50 [8, 32]: 3.9 µM
- IC50 [9, 33]: 14.1 µM
- Inhibitory activity against Gram-positive bacteria (in words) ([12]; Bacillus subtilis, Micrococcus luteus, Mycobacterium smegmatis, Staphylococcus aureus): showed inhibitory activity
- Antitumor activity (in words) [13]: “potent” antitumor activity
- Toxicity (in words) [14]: low toxicity

Structure (SMILES): C[C@H]1CC(O)=C2C(=O)c3c(ccc(-c4ccc(O)c5c4O[C@]4(C(=O)O)C(=C(O)C[C@H](C)[C@@H]4O)C5=O)c3O)O[C@@]2(C(=O)O)[C@H]1O [Compound 3, penicillixanthone A]
- MIC [1, 28]: 4.2 µg/mL (≈ 6.88 µM)
- Minimum Inhibitory Concentration (MIC) [2]: -
- Minimum Inhibitory Concentration (MIC) [3]: -
- MIC [4, 29]: 33.3 µg/mL (≈ 54.5 µM)
- MIC ([5]; Mucor hiemalis, DSM6766, strain DSM 6766, starting concentration 66.7 µg/mL, control volume in brackets, read-out: Minimum Inhibitory Concentration (MIC)): 66.7 µg/mL (≈ 109 µM)
- Inhibition of Mucor hiemalis (in words) ([5]; comparable to nystatin): inhibited
- Minimum Inhibitory Concentration (MIC) [6]: -
- MIC [7, 31]: 33.3 µg/mL (≈ 54.5 µM)
- IC50 [8, 32]: 17.2 µM
- IC50 [9, 33]: > 103 µM
- Antibacterial activity (in words) [15]: moderate antibacterial activity
- Antibacterial activity (in words) [16]: moderate antibacterial activity
- Antibacterial activity (in words) [17]: moderate antibacterial activity
- Antibacterial activity (in words) [18]: moderate antibacterial activity
- Cytotoxic effects (in words) [19]: moderate cytotoxic effects
- Cytotoxic effects (in words) [20]: moderate cytotoxic effects
- Anti-HIV-1 activity (in words) [21]: inhibiting
- Anti-HIV-1 activity (in words) [22]: inhibiting

Structure (SMILES): COC(=O)C1(C2OC(=O)CC2C)CC(=O)c2c(O)cccc2O1 (stereo not drawn) [Compound 4, paecilin B]
- Minimum Inhibitory Concentration (MIC) [1, 34]: -
- Minimum Inhibitory Concentration (MIC) [2]: -
- Minimum Inhibitory Concentration (MIC) [3]: -
- Minimum Inhibitory Concentration (MIC) [4, 35]: -
- Minimum Inhibitory Concentration (MIC) [5, 30]: -
- Minimum Inhibitory Concentration (MIC) [6]: -
- Minimum Inhibitory Concentration (MIC) [7, 36]: -
- IC50 [8, 32]: > 200 µM
- IC50 [9, 33]: > 103 µM
- Antimicrobial activity (in words) [12]: neither antimicrobial nor cytotoxic activities
- Cytotoxic activity (in words) [23]: neither antimicrobial nor cytotoxic activities

Structure (SMILES): Cc1ccc(C(=O)c2c(O)cccc2C(=O)O)c(O)c1 [Compound 5, cephalanone F]
- Minimum Inhibitory Concentration (MIC) [1, 34]: -
- Minimum Inhibitory Concentration (MIC) [2]: -
- Minimum Inhibitory Concentration (MIC) [3]: -
- Minimum Inhibitory Concentration (MIC) [4, 35]: -
- Minimum Inhibitory Concentration (MIC) [5, 30]: -
- Minimum Inhibitory Concentration (MIC) [6]: -
- Minimum Inhibitory Concentration (MIC) [7, 36]: -
- IC50 [8, 32]: > 200 µM
- IC50 [9, 33]: > 103 µM
- Antimicrobial activity (in words) [12]: neither antimicrobial nor cytotoxic activities
- Cytotoxic activity (in words) [23]: neither antimicrobial nor cytotoxic activities

Structure (SMILES): C/C(=C\c1csc(C)n1)[C@@H]1C[C@@H]2O[C@]2(C)CCC[C@H](C)[C@H](O)[C@@H](C)C(=O)C(C)(C)[C@@H](O)CC(=O)O1 [Epothilone B, reference compound]
- IC50 [8]: 8.9e-05 µM
- IC50 ([9]; Mus musculus, L929): 0.0018 µM

Structure (SMILES): NC[C@H]1O[C@H](O[C@H]2[C@H](O)[C@@H](O[C@H]3O[C@H](CO)[C@@H](O)[C@H](N)[C@H]3O)[C@H](N)C[C@@H]2N)[C@H](O)[C@@H](O)[C@@H]1O [K, kanamycin, reference compound]
- Minimum Inhibitory Concentration (MIC) ([11]; strain ATCC 700084, starting concentration 66.7 µg/mL, control volume in brackets): 3.3 (2 µL K) μg/mL

Structure (SMILES): C[C@@H]1[C@H](O)[C@@H](C)/C=C/C=C/CC/C=C/C=C/C=C/C=C/C(O[C@H]2O[C@H](C)[C@@H](O)[C@H](N)[C@@H]2O)CC2O[C@](O)(CC(O)C(O)CCC(O)CC(O)CC(O)CC(=O)O[C@H]1C)CC(O)C2C(=O)O (stereo partly drawn) [N, nystatin]
- Minimum Inhibitory Concentration (MIC) ([10]; strain DSM 1665, starting concentration 66.7 µg/mL, control volume in brackets): 66.7 (20 µL N) μg/mL
- Minimum Inhibitory Concentration (MIC) [24]: 66.7 (20 µL N) μg/mL
- Minimum Inhibitory Concentration (MIC) [25]: 66.7 (20 µL N) μg/mL
- Minimum Inhibitory Concentration (MIC) [26]: 16.7 (20 µL N) μg/mL
- Minimum Inhibitory Concentration (MIC) [27]: 33.3 (20 µL N) μg/mL

Structure (SMILES): CN(C)[C@@H]1C(O)=C(C(N)=O)C(=O)[C@@]2(O)C(O)=C3C(=O)c4c(O)cccc4[C@@](C)(O)[C@H]3[C@H](O)[C@@H]12 [O, oxytetracycline hydrochloride, reference compound]
- MIC [1, 28]: 8.3 µg/mL
- MIC ([2]; Chromobacterium violaceum, DSM30191, read-out: Minimum Inhibitory Concentration (MIC)): 1.7 µg/mL
- MIC ([3]; Escherichia coli, DSM1116, read-out: Minimum Inhibitory Concentration (MIC)): 3.3 µg/mL
- MIC [4, 29]: 0.4 µg/mL
- MIC [7, 31]: 0.2 µg/mL
